# Test results from patent US11851389B2, “Cationic lipids for nucleic acid delivery and preparation thereof” (RAMOT AT TEL-AVIV UNIVERSITY LTD., priority 2016, dated 2023).
# “Also recorded” adds a separate entry of the source.
# Experiments:
# [1] = LNP size distribution, PDI and ζ potential by dynamic light scattering; format: physicochemical; conditions: LNP-siRNA formulations
# Procedure: LNPs were prepared by using microfluidic micro mixture (Precision NanoSystems, Vancouver, BC, Canada) as described by Cohen et. al. One volume of lipid mixtures (cationic lipid, DSPC, Chol, DMG-PEG and DSPE-PEG Mal at 50:10:38:1.5:0.5 mole ratio, […] total lipid concentration) in ethanol and three volumes of siRNA (1:16 w/w siRNA to lipid) containing acetate buffer solutions were injected through the micro mixer at a combined flow rate of 2 mL/minute (0.5 mL/min for ethanol and 1.5 mL/min for aqueous buffer). For labeled LNPs, 10% of Alexa-647 labeled siRNA were incorporated. For Cy5 labeled particles, 10% Cy5 labeled non-targeted siRNA was used. The resultant mixture was dialyzed against PBS (pH 7.4) for 16 h to remove ethanol.
# LNPs size distribution and ζ potential were determined by dynamic light scattering using a Malvern nano ZS ζ-sizer (Malvern instruments, UK). For size measurements, LNPs were diluted 1:20 in PBS. […] For ζ potential measurements, LNPs were diluted 1:200 in DDW. In some cases, as indicated, size and zeta potential measurements were performed in water.
# [2] = system: Human multiple myeloma suspension cells (MM1); assay: Cell viability after PLK1 silencing, XTT assay; format: cell-based; conditions: MM1, 48 hrs
# Procedure: Human multiple myeloma suspension cells (MM1) were incubated with siPLK1-LNPs or siCtl-LNPs composed of either lipid 38 or 55 at different concentrations for 48 hrs. Cell viability affected by PLK1 down regulation was measured by XTT assay.
# [3] = system: Cynomolgus monkeys; assay: Liver toxicity (serum ALT, AST) in non-human primate; format: in vivo; conditions: single i.v. 0.5 mg/kg, particles with siNC5, serum at 1 and 24 h, compared with MC3
# Procedure: Cynomolgus monkeys (n=2 per group, males) received a single I.v. administration (1 ml/kg) of (0.5 mg/kg) of MC3 particles with siNC5 and lipid 38-based particles with siNC5 (0.5 mg/Kg). At 1 and 24 h post administration serum was collected at and analyzed for ALT, AST (by Roch Cobra Auto analyzer). Each data point is an average of 2 animals±SEM.
# [4] = system: Human colon carcinoma cells (HCT116); assay: Toxicity of LNPs with ctl siRNA, XTT cell viability; format: cell-based; conditions: 72 hrs
# Procedure: Human colon carcinoma cells (HCT116) were incubated with LNPs with ctl siRNA (see methods) for 72 hrs. The cell viability was measured by XTT assay. Toxicity of LNPs composed of either lipid 38 or lipid 55 is compared with gold standard LNPs composed of Dlin-MC3-DMA.
# [5] = system: Human multiple myeloma suspension cells (U266); assay: PLK1 expression by qPCR after siPLK1-LNPs; format: cell-based; conditions: U266, 48 hrs, normalized to LNPs-ctl siRNA treated cells
# Procedure: The mRNA levels of pololike kinase 1 (PLK1 gene) in cells was quantified by real-time PCR, forty eight or Seventy-two hours post-transfection. Total RNA was isolated using the E-Z RNA purification kit (Biological industries, Beit Haemek, Israel), and 1 μg of RNA from each sample was reverse transcribed into cDNA using the High Capacity cDNA Reverse Transcription Kit (Applied Biosystems, Foster City, CA), Quantification of cDNA (5 ng total) was performed on the step one Sequence Detection System (Applied Biosystems, Foster City, CA) using syber green (Applied Biosystems). GAPDH was chosen as a housekeeping gene.
# Human multiple myeloma suspension cells (U266) were incubated with LNPs containing siPLK1 at different concentrations for 48 hrs. PLK1 expression was measured by qPCR. PLK1-mRNA levels were normalized to LNPs-ctl siRNA treated cells.
# [6] = system: C57BL6/j mice; assay: In vivo delivery of luciferase mRNA to muscle cells, intramuscular, bioluminescence imaging; conditions: i.m., 1 mg/kg body weight
# Procedure: LNPs composed of either lipid 54 or lipid 38 formulated with luciferase mRNA were administered intramuscularly in to C57BL6/j mice at 1 mg/kg body weight. Luciferase expression was measured by bioluminescence imaging system Biospace: (a) after 8 hrs of i.m. administration; and (b) after 24 hrs. […] The expression was still high 24 hrs after the administration of LNPs indicating the efficiency of these lipids in delivering mRNA in vivo.
# [7] = system: Human B-cell lymphoma suspension cells (RPMI-8226); assay: Cell viability after PLK1 silencing, XTT assay; format: cell-based; conditions: RPMI-8226, 48 hrs
# Procedure: Human B-cell lymphoma suspension cells (RPMI-8226) were incubated with siPLK1-LNPs or siCtl-LNPs composed of either lipid 38 or 55 at different concentrations for 48 hrs. Cell viability affected by PLK1 down regulation was measured by XTT assay.
# [8] = system: murine macrophage cells (RAW 264.7); assay: In vitro delivery of luciferase mRNA, luminometer; format: cell-based; conditions: 18 hrs
# Procedure: Hard to transfect murine macrophage cells (RAW 264.7) were treated with LNPs composed of either Lipid38 or Lipid 54 and formulated with luciferase mRNA at different amounts of mRNA. After 18 hrs luciferase expression was measured by luminometer.
# [9] = system: Human colon carcinoma cells (HCT 116); assay: In vitro expression of LUC pDNA, luminometer; format: cell-based; conditions: HCT 116, LNPs-LUC pDNA with DOPE, Chol, PEG-DMG, 48 hrs
# Procedure: Human colon carcinoma cells (HCT 116) were incubated with LNPs-LUC pDNA at different concentrations for 48 hrs. Luciferase expression was measured by luminometer. Lipofectamine 2000 (Lipo 2000) was used as positive control. LNPs were composed of lipid 38 and different amounts of co-lipid DOPE, along with other co-lipids such as Chol, PEG-DMG.
# [10] = system: C57BL6/j mice; assay: In vivo delivery of luciferase mRNA to liver, intravenous, bioluminescence imaging; conditions: intravenously, 1 mg/kg body weight
# Procedure: LNPs composed of either lipid 54 or lipid 38 formulated with luciferase mRNA were administered intravenously into C57BL6/j mice at 1 mg/kg body weight. After 8 hrs, luciferase expression was measured by bioluminescence imaging system Biospace.
# LNPs composed of lipid 38 formulated with luciferase mRNA were administered intravenously into C57BL6/j mice at 1 mg/kg body weight. After 8 hrs and 24 hrs of administration, luciferase expression was measured by bioluminescence imaging system Biospace.
# [11] = system: Human multiple myeloma suspension cells (U266); assay: Cell viability after PLK1 silencing, XTT assay; format: cell-based; conditions: U266, 48 hrs
# Procedure: Human multiple myeloma suspension cells (U266) were incubated with siPLK1-LNPs or siCtl-LNPs composed of either lipid 38 or 55 at different concentrations for 48 hrs. Cell viability affected by PLK1 down regulation was measured by XTT assay.
structure (smiles),measurement,setting,value
CCCCC/C=C\C/C=C\CCCCCCCCN(CCCCCCCC/C=C\C/C=C\CCCCC)CCOC(=O)CCCN(C)C [Lipid 38],Zeta-potential (mV),[1],6.7 mV
same,PDI,[1]; DLS,0.08
same,Size (d · nm),[1]; DLS,59.0 nm
same,"Cell viability, siCtl-LNPs",[2],no effect on the cell viability
same,"Cell viability, siPLK1-LNPs",[2],dose dependent effect on multiple myeloma cancer cell viability
same,"Liver toxicity (ALT, AST)",[3],No liver toxicity
same,Toxicity of LNPs (cell viability),[4],less toxic than LNPs composed of Dlin-MC3-DMA
same,"PLK1 expression, siPLK1-LNPs",[5],efficiently down regulate
same,Luciferase expression after 8 hrs,[6]; 8 hrs,significant amounts of luciferase
same,Luciferase expression after 24 hrs,[6]; 24 hrs,still high
same,"Cell viability, siCtl-LNPs",[7],no effect on the cell viability
same,"Cell viability, siPLK1-LNPs",[7],dose dependent effect on B-cell lymphoma cancer cell viability
same,Dose dependence of luciferase expression,"[8]; RAW 264.7, different amounts of mRNA",dose dependent expression was observed
same,Luciferase expression,"[8]; RAW 264.7, luciferase mRNA LNPs",efficiently compared to lipid 54-LNPs
same,Delivery of pDNA to the nucleus,[9],efficiently delivering pDNA to the nucleus
same,"Luciferase expression in liver, 8 hrs versus 24 hrs",[10],high after 8 hrs compared to after 24 hrs
same,Luciferase expression in liver,"[10]; 8 hrs, 1 mg/kg",significant amount of luciferase in mouse liver compared to LNPs composed of lipid 54; also recorded: significant amount of luciferase expression was observed in liver
same,"Cell viability, siCtl-LNPs",[11],no effect on the cell viability
same,"Cell viability, siPLK1-LNPs",[11],more effect on cell viability compared to Dlin-MC3-DMA LNPs
